According to US20150374784A1, “COMPOSITIONS AND METHODS FOR REDUCING GERM CELL DEATH” (Los Angeles Biomedical Research Institute at Harbor-UCLA …, priority 2014, published 2015):
Where a name gives a salt, the structure may show the parent alone.

Columns and labels:
B16 melanoma cells = format: cell-based; conditions: B16 cells in culture
Text: Furthermore, the autophagy induction of humanin may be related to its apparent effects of enhancing longevity observed in other systems.

[1] = system: germ cells in seminiferous tubules; assay: Germ cell apoptosis in mouse seminiferous tubule cultures ex vivo (TUNEL); format: cell-based; conditions: 12 hours; for germ cell apoptosis (number of apoptotic germ cells) compared to control: DOX 10 μM (high dose), hydrochloride
Procedure: A total of 15 young adult (12-13 week-old) mice were used for these ex vivo studies. The animals were sacrificed with a 5% pentobarbital (200 mg/Kg) IP injection. Testes were dissected and after removing the tunica albuginea, seminiferous tubules isolated from testes were cut into small segments under a dissecting microscope and light and dark segments were separated by dissection. Ten to twelve segments were placed (2 mm in length) in each well on a six well plate with 2 ml serum free Ham F-10 culture medium (GIBCO, Life Technologies, Thermo Fisher Scientific Corp., Carlsbad, Calif.) with the following treatments: control (Con, n=10), heat (43° C., 15 minutes, used as a positive control, n=10); HN 10 μg/mL (n=9); DOX 10 mcM (Dox10, n=10); and DOX 10 mcM+Humanin 10 μg/mL (Dox10+HN, n=10). For these experiments, n represents the total number of times the treatment was repeated using different animals. After 12 hours of incubation at 34° C. the seminiferous tubules from each treatment group were used to make “squashed” seminiferous tubule samples on a slide for TUNEL (TdT-mediated dUTP nick-end labeling) assay to detect germ cell apoptosis (Erkkila, et al., 1997; Toppari & Parvinen, 1985). To quantify the rate of germ cell apoptosis under a light microscope at 400× magnification, a square grid fitted within the eyepiece provided a reference area of 62,500 μm^2. The TUNEL positive apoptotic germ cells within the frame of grid were counted in 4 segments of seminiferous tubules in each group. The incidence of germ cell apoptosis was expressed as the number of apoptotic germ cells per mm^2.
A total of 15 mice were used for ex vivo studies. The animals were sacrificed and seminiferous tubules isolated from testes were cut into small segments under a dissecting microscope to identify light (early stages I-IV and late stages XI-XII) of the seminiferous epithelium) and dark (middle stages VII-VIII) segments. Ten to twelve light segments (2 mm in length) were placed per well on a six well plate with 2 ml serum free medium of F-10 Ham nutrient mixture (Gibco, Life Technologies, Grand Island, N.Y.) following these treatments: control (Con, n=15 where n is the number of times the treatment was repeated with segments obtained from different donor animals), heat (43° C., 15 min.; used as a positive control, n=10), HN 10 μg/mL (HN, n=9), doxorubicin 1 μM (Dox1, n=7), doxorubicin 1 μM+HN 10 μg/mL (Dox1+HN, n=7), doxorubicin 10 μM (Dox10, n=10), and doxorubicin 10 μM+HN 10 μg/mL (Dox10+HN, n=10). After 12 hours of incubation at 34° C. with 5% CO2, the seminiferous tubules from the seven treatment groups were used to make “squashed” seminiferous tubule preparations on a slide for TUNEL assay to detect germ cell apoptosis (Erkkila K, et al., 1997). To quantify the rate of germ cell apoptosis, the squashed segments of seminiferous tubules were examined with an American Optical Microscope (Scientific Instruments, Buffalo, N.Y.) with a 40×objective and a 10×eyepiece lens. A square grid fitted within the eyepiece provided a reference area of 62,500 μm^2. The TUNEL positive apoptotic germ cells within the frame of grid were counted in 4 segments of seminiferous tubules in each group. The incidence of germ cell apoptosis was expressed as the number of apoptotic germ cells per mm^2.

male germ cells [2] = conditions: EDS 80 mg/kg IP 3 days before; CP 70 mg/kg BW
Leydig cells = assay: Leydig cell depletion and testosterone levels in rats; format: in vivo, rat
male germ cells [3] = format: in vivo, mouse; conditions: for effect of adding the analog on the preventive effect of HN against CP-induced germ cell apoptosis: each peptide 40 mg/kg BW; for spontaneous germ cell apoptosis, peptide alone: single IP, 24 hours, no CP; for effect on CP-induced germ cell apoptosis, early+late stages / inhibition of (protection against) CP-induced germ cell apoptosis, early+late stages: stages I-IV and XI-XII; for effect on CP-induced germ cell apoptosis, early+late stages / effect on CP-induced germ cell apoptosis, middle stages: 40 mg/kg BW; for inhibition of (protection against) CP-induced germ cell apoptosis, early+late stages: HN, HN-C8P 40 mg/kg BW
Procedure: (§1) For the HN analog experiments, male mice were divided into seven groups (n=4-5 per group) and received one of the following treatments and sacrificed after 24 hours: 1) vehicle (control); 2) a single intra-peritoneal (IP) injection of HN peptide [HN, 40 mg/Kg body weight (BW)]; 3) a single IP injection of CP (CP, 200 mg/Kg BW); 4) IP injection of CP and HN (CP+HN); 5) a single IP injection of each HN analog (HNG 5 mg/Kg BW, HNG-F6A 5 mg/Kg BW, HN-S7A 40 mg/Kg BW, HN-C8P 40 mg/Kg BW, or HN-L12A 40 mg/Kg BW); 6) IP injection of CP and each HN analog (CP+HNG, HNG-F6A, HN-S7A, HN-C8P, or HN-L12A); and 7) IP injection of CP+HN+HN analog (HN-S7A, HN-C8P, or HN-L12A; to assess whether the analogs has enhancing or inhibitory effect on HN).
(§2) To facilitate testicular fixation by using a whole-body perfusion technique, all animals were injected with heparin (130 IU/100 g BW, IP) 15 min before a lethal injection of sodium pentobarbital (200 mg/kg BW, IP) (Lue Y H, et al., 1999). One testis was removed and weighed after perfusion with saline. Portions of testicular parenchyma were snap frozen in liquid nitrogen, and stored at −80 C for Western blotting. The other testis was fixed by vascular perfusion with Bouin's solution, and processed with routine paraffin embedding for in situ detection of apoptosis.
Detection of apoptotic cells was performed in Bouin's′-fixed, paraffin-embedded testicular sections by the terminal deoxynucleotidyl transferase (TdT)-mediated deoxy-UTP nick end labeling (TUNEL) technique (Sinha Hikim A P, et al., 1997) using an ApopTag-peroxidase kit (Chemicon International, Inc., Temecula, Calif.). Enumeration of the Sertoli cell nuclei with distinct nucleoli and apoptotic germ cell population was quantified at stages I-IV (early stages), stages VII-VIII (middle stages) and stages XI-XII (late stages) of the seminiferous epithelial cycle using an Olympus BH-2 microscope (New Hyde Park, N.Y.). Stages were identified according to the criteria proposed by Russell et al for paraffin sections (Russell L, 1977). The rate of germ cell apoptosis (apoptotic index, AI) was expressed as the number of apoptotic germ cells per Sertoli cells (Sinha Hikim A P, et al., 1997).

cells = conditions: Table 1, description of analogs; cited from earlier work
[4] = system: IGFBP-3, membrane receptor, BAX, HN; conditions: Table 1, description of analogs; cited from earlier work
STAT3 = STAT3 phosphorylation in testis by western blot; format: in vivo, mouse; conditions: testis homogenates; for STAT3 phosphorylation (phosphorylated STAT3/STAT3) compared with control: treatment alone; for CP suppressed STAT3 (Ser727) phosphorylation: with CP 200 mg/Kg
Procedure: as §1, §2
Western blotting was performed as described previously (Jia Y, et al., 2009). In brief, proteins were denatured and separated by sodium dodecyl sulfate-polyacrylamide gel electrophoresis (SDS-PAGE) system (Invitrogen, Carlsbad, Calif.). After transferring, the Immuno-blot PVDF Membrane (Bio-Rad, Hercules, Calif.) was blocked for 1 h and then probed using anti-STAT3 or anti-pSer727 STAT3 (Cell signaling Technology, Inc., Beverly, Mass.) overnight at 4 C with constant shaking. After washing, membrane was then incubated with an anti-mouse (for STAT3 antibody, Santa Cruz Biotechnology, Santa Cruz, Calif.) or anti-rabbit (for pSer727 STAT3 antibody, Amersham Biosciences, Piscataway, N.J.) IgG-HRP secondary antibody. All antibodies were diluted in blocking buffer. For immunodetection, membrane was incubated with enhanced chemiluminescence solutions per the manufacturer's specifications (Amersham Biosciences, Piscataway, N.J.), and exposed to Hyperfilm ECL (Denville Scientific Inc., Metuchen, N.J.).

[5] = rats, EDS 80 mg/kg, CP 70 mg/kg BW, HN 40 mg/kg BW, with or without EDS pre-treatment

Row | Compound | effect of adding the analog on the preventive effect of HN against CP-induced germ cell apoptosis (male germ cells [3]) | spontaneous germ cell apoptosis, peptide alone (male germ cells [3]) | effect on CP-induced germ cell apoptosis, early+late stages (male germ cells [3]) | effect on CP-induced germ cell apoptosis, middle stages (male germ cells [3]; stages VII-VIII) | Cytoprotective Action (cells) | Characteristics [4] | also measured
1 | Cn1cnc(N)c2ncnc1-2 [3-MA] |  |  |  |  |  |  | additive effect of humanin in doxorubicin treated B16 cells, with autophagy inhibitor (B16 melanoma cells): diminished the additive effect of humanin
2 | COc1cccc2c1C(=O)c1c(O)c3c(c(O)c1C2=O)C[C@@](O)(C(=O)CO)C[C@@H]3O[C@H]1C[C@H](N)[C@H](O)[C@H](C)O1 [DOX, doxorubicin hydrochloride, reference compound] |  |  |  |  |  |  | germ cell apoptosis (number of apoptotic germ cells) compared to control [1]: significantly higher number of apoptotic germ cells; germ cell apoptosis (number of apoptotic germ cells) compared to control ([1]; listed as doxorubicin): significantly increased apoptosis; germ cell apoptosis compared with control ([1]; doxorubicin 1 μM (low dose)): increased apoptosis but did not reach statistical difference
3 | CS(=O)(=O)OCCOS(C)(=O)=O [EDS, ethane dimethanesulfonate] |  |  |  |  |  |  | germ cell apoptosis at early (I-VI) and late (IX-XIV) stages, EDS pre-treated rats, compared to control (male germ cells [2]): did not significantly increase germ cell apoptosis; germ cell apoptosis in middle (VII-VIII) stages, EDS pre-treated rats (male germ cells [2]): had significant acute cytotoxic effects on germ cells; Leydig cells in the interstitial spaces (testis histology) (Leydig cells; EDS for three days): depletion of Leydig cells; intratesticular testosterone levels (Leydig cells; [5]): decreased to very low levels; serum testosterone levels (Leydig cells; [5]): decreased to very low levels
4 | CCN(CC)CCCC(C)Nc1ccnc2cc(Cl)ccc12 (stereo not drawn) [chloroquine] |  |  |  |  |  |  | additive effect of humanin in doxorubicin treated B16 cells, with autophagy inhibitor (B16 melanoma cells): diminished the additive effect of humanin
5 | HN-L12A: HN with a substitution of alanine for 12th leucine, HN antagonist dimerizes with HN preventing HN binding to receptor (MAPRGFSCLLLATSEIDLPVKRRA) | completely blocked the preventive effect of HN | did not change the spontaneous germ cell apoptosis | unable to rescue | unable to rescue | HN antagonist, forms inactive dimer |  | 
6 | MAPRGASCLLLLTGEIDLPVKRRA [HNG-F6A] |  | did not change spontaneous germ cell apoptosis |  |  |  |  | inhibition of (protection against) CP-induced germ cell apoptosis, early+late stages (male germ cells [3]; HNG, HNG-F6A 5 mg/kg BW): ~38%; prevention of CP-induced germ cell apoptosis, middle stages (male germ cells [3]; stages VII-VIII, HNG, HNG-F6A 5 mg/kg BW): ~42%
7 | MAPRGASCLLLLTSEIDLPVKRRA [HN-F6A] |  |  |  |  | Similar/more effective than HN. | Loss of IGFBP-3 binding | 
8 | MAPRGFACLLLLTSEIDLPVKRRA [HN-S7A] | did not change the effect of HN on CP-induced apoptosis | did not change the spontaneous germ cell apoptosis | inhibited | had better protective effect than HN | Not effective, prevents HN self- | Loss of membrane receptor | STAT3 phosphorylation (phosphorylated STAT3/STAT3) compared with control (STAT3): did not change STAT3 phosphorylation; CP suppressed STAT3 (Ser727) phosphorylation (STAT3): restored CP-induced Ser 727-phosphorylation of STAT3
9 | MAPRGFSALLLLTSEIDLPVKRRA [HN-C8A, HN mutant, Cys8 to Ala] |  |  |  |  | Not effective, prevents HN self- | Loss of membrane receptor | 
10 | MAPRGFSPLLLLTSEIDLPVKRRA [HN-C8P] | did not change the preventive effect of HN | did not change the spontaneous germ cell apoptosis | showed less protection against CP-induced apoptosis | no significant effect in middle (VII-VIII) stages | Not effective, blocks intracellular HN | Loss of BAX binding | inhibition of (protection against) CP-induced germ cell apoptosis, early+late stages (male germ cells [3]; HNG, HNG-F6A 5 mg/kg BW): ~30%; STAT3 phosphorylation (phosphorylated STAT3/STAT3) compared with control (STAT3): did not change STAT3 phosphorylation; CP suppressed STAT3 (Ser727) phosphorylation (STAT3): restored CP-induced Ser 727-phosphorylation of STAT3
